According to PMC3913854 (Investigational New Drugs, 2013):
Entries after “also recorded” stand apart in the source; their conditions may differ.

Key:
[1] = tested on: EGFR mutant NSCLC cell line HCC4006; settings: ref data on file; cited from earlier work
[2] = phase 1 study: CSF distribution and protein binding; format: in vivo, human; settings: 400 mg BID; for Css,avg,u,CSF (steady-state average unbound CSF concentration): n = 5, calculated by Eq. 1
[3] = tested on: patients with advanced cancers; settings: Japanese patients, N = 26, cited from earlier work
advanced solid tumors = assay: phase 1 study: tumor response; format: in vivo, human; settings: for clinical benefit rate: CR, PR or SD durable for > 6 cycles
P-glycoprotein (P-gp) = settings: in vitro transport studies; Nakayama et al., unpublished data, 2012; cited from earlier work
[4] = phase 1 study: plasma pharmacokinetics; format: in vivo, human
murine xenograft models = settings: cited from earlier work
[5] = tested on: mutant EGFR kinase (L858R and L861Q); settings: preclinical, Nakayama et al., unpublished data, 2012; cited from earlier work
[6] = in vitro; Nakayama et al., unpublished data, 2012; cited from earlier work
[7] = tested on: patients with advanced cancer; assay: phase 1 dose-escalation study: safety, MTD, DLTs, adverse events; format: in vivo, human
[8] = rats; cited from earlier work
[9] = tested on: breast cancer resistance protein (BCRP); settings: in vitro transport studies; Nakayama et al., unpublished data, 2012; cited from earlier work
malignant cell lines = settings: preclinical; cited from earlier work
[10] = across an intact or a tumor-compromised BBB; cited from earlier work
[11] = tested on: brain metastases from HER2+ breast cancer; settings: monotherapy; N = 242; cited from earlier work

CC(C)(O)CC(=O)NCCn1ccc2ncnc(Nc3ccc(Oc4cccc(C(F)(F)F)c4)c(Cl)c3)c21 [TAK-285]
inhibition of cell growth [1]: did not inhibit the growth | Css,avg,u,CSF (steady-state average unbound CSF concentration) ([2]; geometric mean (%CV)): 1.54 ng/mL | Css,avg,u,CSF (steady-state average unbound CSF concentration) ([2]; range of individual values): 0.51 to 4.27 ng/mL | Kp ([2]; human, CSF (unbound) / plasma (unbound), oral, Cu,CSF:Cu,p ratio, 3 to 4 h postdose day 15, n = 7, mean (%CV)): 0.663 | tolerability [3]: generally well tolerated | partial response ([3]; parotid cancer): 1 patient | maximum tolerated dose (MTD) ([3]; twice daily [BID]): 300 mg | clinical benefit rate (advanced solid tumors; RP2D cohort, 1 patient): 13% | stable disease (best response) (advanced solid tumors; RP2D cohort, 4 of 8 patients): 50% | complete or partial response (advanced solid tumors; all cohorts): No patient | clinical benefit rate (advanced solid tumors; dose-escalation cohorts, 3 patients): 9% | stable disease (best response) (advanced solid tumors; dose-escalation cohorts, 9 of 33 patients): 27% | substrate for BBB efflux transporter P-gp (P-glycoprotein (P-gp)): not a substrate | dose-proportionality of steady-state exposures ([4]; 50 mg BID to 500 mg BID): greater than dose-proportional | %CV of steady-state t½ ([4]; 400 mg BID): 11% | increase in geometric mean steady-state AUC0-τ ([4]; 10-fold increase in dose, 50 mg BID to 500 mg BID): 29 fold | extent of accumulation ([4]; MTD of 400 mg BID): approximately 3 fold | pharmacokinetic steady-state achieved ([4]; based on similar trough concentrations on days 8, 15 and 21): ≤ 8 days | time of maximum (peak) plasma concentration ([4]; oral, across cohorts, median): 2 to 3 h | slope of linear regression of log (Css,avg) versus log (Dose) ([4]; power model, 95 % CI, 1.26–1.59): 1.43 | %CV in AUC0-τ ([4]; steady-state, MTD of 400 mg BID): 58% | antitumor activity (murine xenograft models): has antitumor activity | inhibition of mutant EGFR kinase activity [5]: inhibits mutant EGFR kinase activity | transcellular permeability [6]: high | dose-limiting toxicities ([7]; all cohorts, as summarised in abstract): diarrhea, hypokalemia, and fatigue | tolerability ([7]; at the MTD/RP2D of 400 mg BID): generally well tolerated | BBB penetration / brain distribution [8]: crosses the intact BBB; also recorded: penetrates the BBB | substrate for BBB efflux transporter BCRP [9]: not a substrate | growth of malignant cell lines (malignant cell lines): inhibits the growth

CS(=O)(=O)CCNCc1ccc(-c2ccc3ncnc(Nc4ccc(OCc5cccc(F)c5)c(Cl)c4)c3c2)o1 [lapatinib, N-{3-chloro-4-[(3-fluorobenzyl)oxy]phenyl}-6-[5-({[2-(methylsulfonyl)ethyl]amino}methyl)-2-furyl]-4-quinazolinamine]
central nervous system (CNS) penetration [10]: negligible | clinical benefit rate [11]: 43% | objective response rate [11]: 6% | patients with ≥ 50 % reduction in CNS tumor size [11]: 8%
